Laboratory results reported in patent publication US20100323990A1, “SHIP 1 MODULATOR PRODRUGS” (THE UNIVERSITY OF BRITISH COLUMBIA, priority 2006, published 2010).

How the values were obtained:
[1] = system: LNCaP cells; assay: PKB activation in LNCaP cells, which do not express SHIP; assay type: cell-based, human; settings: AQX-016A at doses up to 60 μM
Description: The ability of AQX-016A to inhibit activation of PIP3-dependent downstream signalling proteins in SHIP^+/+ vs SHIP^−/− was assessed. LPS stimulation of macrophages results in PKB phosphorylation. […] Similar protein loading was confirmed by reblotting with either antibodies to PKB or Grb2. […] Thus, AQX-016A inhibits PIP3-regulated intracellular signal transduction events in SHIP expressing hematopoietic cells, but not in SHIP-deficient hematopoietic or non-hematopoietic cells.

[2] = target: T1, ΔC2 SHIP (Homo sapiens, UniProt Q92835, DEL725-863); assay: Scintillation proximity assay, SHIP lacking its C2 domain; assay type: binding; settings: SPA beads
T1 construct: His6; made in house; host or cells: mammalian expression vector pME18S
T1 sequence (Q92835 with tags, fused parts or gaps DEL725-863): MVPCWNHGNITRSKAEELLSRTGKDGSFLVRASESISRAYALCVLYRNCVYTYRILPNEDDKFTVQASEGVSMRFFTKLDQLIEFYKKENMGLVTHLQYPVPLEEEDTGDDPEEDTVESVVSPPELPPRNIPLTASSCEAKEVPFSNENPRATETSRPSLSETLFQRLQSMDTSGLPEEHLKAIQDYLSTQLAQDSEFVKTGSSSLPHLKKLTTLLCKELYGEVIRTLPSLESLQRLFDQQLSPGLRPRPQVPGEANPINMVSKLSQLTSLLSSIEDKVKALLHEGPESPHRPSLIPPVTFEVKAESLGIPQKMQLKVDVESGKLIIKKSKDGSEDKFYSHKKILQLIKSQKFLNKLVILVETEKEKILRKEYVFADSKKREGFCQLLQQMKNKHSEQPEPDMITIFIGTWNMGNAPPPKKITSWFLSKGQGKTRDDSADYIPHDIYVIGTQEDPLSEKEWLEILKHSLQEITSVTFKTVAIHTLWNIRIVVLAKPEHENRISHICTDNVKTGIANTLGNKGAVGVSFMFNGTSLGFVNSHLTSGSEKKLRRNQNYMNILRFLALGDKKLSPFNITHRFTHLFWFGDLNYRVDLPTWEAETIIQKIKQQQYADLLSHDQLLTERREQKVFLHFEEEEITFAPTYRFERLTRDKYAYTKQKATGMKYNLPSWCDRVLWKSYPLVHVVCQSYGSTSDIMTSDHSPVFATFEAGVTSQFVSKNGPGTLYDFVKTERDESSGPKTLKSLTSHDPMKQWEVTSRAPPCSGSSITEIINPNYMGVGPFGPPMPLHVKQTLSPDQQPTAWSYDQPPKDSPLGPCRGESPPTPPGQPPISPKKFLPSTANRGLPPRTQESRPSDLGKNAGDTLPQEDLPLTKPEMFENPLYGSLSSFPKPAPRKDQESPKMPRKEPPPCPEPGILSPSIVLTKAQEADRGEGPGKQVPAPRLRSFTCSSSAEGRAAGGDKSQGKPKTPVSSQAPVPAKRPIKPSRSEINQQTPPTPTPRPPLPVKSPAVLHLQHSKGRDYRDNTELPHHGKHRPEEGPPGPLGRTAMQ
Description: (§1) Compound 100 was radiolabelled with tritium by GE Healthcare (Piscataway, N.J.) to a specific activity of 42 Ci/mmole. Copper chelate (His-Tag) YSi SPA Scintillation Beads (GE ealthcare, Piscataway, N.J.) were diluted in 0.25% BSA/TBS to 1.5 mg/mL and recombinant, His6-tagged protein added at the indicated concentrations: wild-type (1 pM), ΔC2 SHIP enzyme (1 pM) or C2 domain (10 nM). Protein was allowed to bind 1 h at 23° C., and 250 μg of beads were aliquoted per well of a 96-well plate. 5 μCi of [^3H]-Compound 100 was added per well, the plate gently agitated for 30 min and the amount of bead associated radioactivity quantified by counting in a Wallac BetaPlate plate scintillation counter.
(§2) Isolated recombinant, His6-tagged C2 domain was expressed and its PI-3,4-P2 binding ability was determined using protein lipid overlay assays. Purified C2 domain was incubated with membrane strips spotted with PI-3,4-P2 and bound protein detected using an anti-His6 antibody. As shown in FIG. 11C the C2 domain bound PI-3,4-P2 and this binding was inhibited by Compound 100, consistent with both Compound 100 and PI-3,4-P2 interacting with the C2 domain at a common binding site.

[3] = target: T1, ΔC2 SHIP; assay: SHIP enzyme assay with C2 domain deleted SHIP; assay type: biochemical; settings: PI-3,4-P2 20 μM, Compound 100 3 μM, 30 μM IP4
Source text: A His6 tagged SHIP ΔC2 domain deletion mutant (deleting residues 725 to 863) in the mammalian expression vector pME18S was generated by a standard PCR-based methodology. An N-terminal His6 C2 domain construct was also generated by PCR inserted into the pET28C bacterial expression vector using EcoRI and NdeI restriction sites.
The allosteric regulation of enzymes has remained under-appreciated primarily because allosteric effectors are not easy to find. The molecular mechanism by which Compound 100 activated SHIP was investigated, first by performing classical enzyme kinetic analysis of its phosphatase activity. Activity measurements were performed with substrate concentrations from 10-100 μM.
The SHIP protein contains a C2 domain located at the carboxyterminal end of its phosphatase domain. […] SHIP lacking its the C2 domain (ΔC2 SHIP) was prepared.

[4] = system: wild-type SHIP; assay: Scintillation proximity assay, wild-type SHIP; assay type: binding; settings: SPA beads
Description: as §1, §2

Row | Compound | PKB phosphorylation in LNCaP cells [1] | binding of [3H]-Compound 100 to SHIP lacking its C2 domain [2] | enhancement of ΔC2 SHIP activity [3] | binding of [3H]-Compound 100 to wild-type SHIP [4]
1 | Cc1cc(O)c(O)c2c1[C@]1(C)CCC3C(C)(C)CCC[C@]3(C)[C@H]1C2 (stereo partly shown) [AQX-016A] | no effect |  |  | 
2 | Cc1cc(O)cc2c1[C@]1(C)CCC3C(C)(C)CCC[C@]3(C)[C@H]1C2 (stereo partly shown) [Compound 100] |  | not to SHIP lacking its C2 domain | could not be enhanced | bound to wild-type SHIP
